Values quoted from earlier work, collected in PMC2074590 (British Journal of Cancer, 1996).

Columns and labels:
breast cancer cells = test system: breast cancer cells; parameters: method as in Wakeling and Bowler, 1987, 1988; settings: ref Wakeling and Bowler, 1987, 1988; cited from earlier work
advanced breast cancer = settings: ref Cole et al., 1971, Patterson et al., 1981; cited from earlier work
[1] = test system: Ki67, ER, PgR, pS2 in primary breast cancer; settings: similar clinical experiments; ref Howell et al., 1988; Roberston et al., 1991; Clarke et al., 1993; Nicholson et al., 1994; cited from earlier work
[2] = ref Willemse et al., 1990; cited from earlier work

CCCCN(C)C(=O)CCCCCCCCCC[C@@H]1Cc2cc(O)ccc2[C@H]2CC[C@]3(C)[C@@H](O)CC[C@H]3[C@H]12 [ICI 164384, reference compound]
Potency as inhibitor of cell growth in vitro relative to tamoxifen (breast cancer cells): up to two orders of magnitude more potent than tamoxifen

CC/C(=C(\c1ccccc1)c1ccc(OCCN(C)C)cc1)c1ccccc1 [tamoxifen, reference compound]
Median duration of remission (advanced breast cancer): about 18 months
ER expression [1]: no change in ER expression
PgR expression [1]: slightly increased PgR expression

CC(=O)O[C@]1(C(C)=O)CC[C@H]2[C@@H]3C=C(C)C4=CC(=O)CC[C@]4(C)[C@H]3CC[C@@]21C [megestrol acetate]
Patients with weight gain of > 5% of body weight [2]: 25%
